Key:
[1] = test system: dog; conditions: Subchronic oral toxicity in nonrodent, beagle, Capsule, dose end: 96 day, group: systemic
[2] = test system: mouse; conditions: Subchronic oral toxicity in rodents, cd1, Feed, dose end: 90 day, group: systemic
[3] = test system: rat; conditions: Subchronic oral toxicity in rodents, other, Feed, dose end: 90 day, group: systemic
[4] = test system: dog; conditions: Chronic toxicity, beagle, Oral, Capsule, dose end: 52 week, group: systemic
[5] = test system: rat; conditions: Subchronic oral toxicity in rodents, other, Feed, dose end: 90 day, group: systemic; remark: listed apart in the source
[6] = test system: mouse; conditions: Carcinogenicity, cd1, Oral, Feed, dose end: 78 week, group: systemic
[7] = test system: rat; conditions: Combined chronic toxicity/carcinogenicity, fischer, Oral, Feed, dose end: 106 week
[8] = test system: rat; conditions: Combined chronic toxicity/carcinogenicity, fischer, Oral, Feed, dose end: 2 year
[9] = test system: rabbit; conditions: Prenatal developmental toxicity study, Dutch, Oral, Gavage/Intubation, dose end: 18 GD
[10] = test system: mouse; conditions: Combined chronic toxicity/carcinogenicity, cd1, Oral, Feed, dose end: 24 month
[11] = test system: rat; conditions: Multigenerational reproductive toxicity study, sprague dawley, Oral, Feed, dose end: 2 generation
[12] = systemic / in life observation / body weight / body weight gain + systemic / in life observation / food consumption / food efficiency
[13] = systemic / in life observation / body weight / body weight gain + systemic / in life observation / food consumption / food efficiency + …
[14] = systemic / pathology microscopic / liver / vacuolization
[15] = systemic / pathology microscopic / liver / vacuolization + systemic / hematology / erythrocyte (rbc) count differential / erythrocyte (rbc…
[16] = systemic / in life observation / clinical signs / abdominogenital staining + systemic / in life observation / clinical signs / urinary …
[17] = systemic / in life observation / clinical signs / abdominogenital staining + systemic / in life observation / water consumption / water …
[18] = systemic / organ weight / spleen / relative to body weight
[19] = systemic / hematology / erythrocyte (rbc) count differential / erythrocyte (rbc) + systemic / hematology / hematocrit (hct) / hematocrit (…
[20] = group: cholinesterase, cholinesterase / cholinesterase / cholinesterase / plasma cholinesterase (che) + cholinesterase / cholinesterase / cholinesterase / brain …
[21] = group: systemic, systemic / hematology / hematocrit (hct) / hematocrit (hct) + systemic / hematology / mean corpuscular (cell) volume (mcv) / mean …
[22] = group: cholinesterase, cholinesterase / cholinesterase / cholinesterase / brain cholinesterase (che) + cholinesterase / cholinesterase / cholinesterase / …
[23] = group: systemic, systemic / in life observation / body weight / body weight + systemic / in life observation / body weight / body weight gain + systemic / …
[24] = group: cholinesterase, cholinesterase / cholinesterase / cholinesterase / erythrocyte cholinesterase (che) + cholinesterase / cholinesterase / cholinesterase / …
[25] = group: developmental, developmental / developmental malformation / bone / delayed ossification + systemic / in life observation / body weight / fetal weight
[26] = group: maternal, reproductive / reproductive performance / resorptions / resorptions + reproductive / reproductive performance / aborted / aborted + systemic…
[27] = group: systemic, systemic / in life observation / clinical signs / urine staining - perineum
[28] = group: systemic, systemic / in life observation / clinical signs / vaginal discharge + systemic / in life observation / clinical signs / urine staining - …
[29] = group: cholinesterase, cholinesterase / cholinesterase / cholinesterase / brain cholinesterase (che) + cholinesterase / cholinesterase / cholinesterase / plasma …
[30] = group: offspring, systemic / in life observation / body weight / offspring (pup) weight + systemic / pathology microscopic / kidney / dilatation
[31] = group: parental, systemic / pathology gross / lung / discolored + systemic / pathology microscopic / lung / hyperplasia + systemic / pathology microscopic / …
[32] = group: reproductive, reproductive / offspring survival early / birth index / birth index

CCOC(=O)COc1cc(-n2ncc(C(F)(F)F)c(C)c2=O)c(F)cc1Cl [Flufenpyr-ethyl]
LOAEL [1, 12]: 1000 mg/kg/day
LEL [1, 13]: 100 mg/kg/day
NEL [1, 13]: < 100 mg/kg/day
NOAEL [1, 13]: 300 mg/kg/day
LEL [2, 14]: 395 mg/kg/day
LOAEL [2, 14]: 395 mg/kg/day
NEL [2, 15]: 128 mg/kg/day
NOAEL [2, 15]: 128 mg/kg/day
LOAEL [3, 16]: 595 mg/kg/day
NOAEL [3, 16]: 55 mg/kg/day
LEL [3, 17]: 55 mg/kg/day
NEL [3, 17]: < 55 mg/kg/day
LOAEL ([4]; systemic / in life observation / body weight / body weight gain): 1000 mg/kg/day
LEL [4, 12]: 200 mg/kg/day
NEL [4, 12]: 50 mg/kg/day
NOAEL [4, 12]: 200 mg/kg/day
LOAEL ([5]; systemic / in life observation / clinical signs / body surface staining + systemic / in life observation / clinical signs / urinary …): 414 mg/kg/day
LEL [5, 18]: 39 mg/kg/day
NEL [5, 18]: < 39 mg/kg/day
NOAEL ([5]; systemic / organ weight / spleen / relative to body weight + systemic / in life observation / clinical signs / body surface staining + …): 134 mg/kg/day
LOAEL [6, 19]: 402 mg/kg/day
NOAEL [6, 19]: 39.9 mg/kg/day
LEL [6, 14]: 397 mg/kg/day
NEL [6, 14]: 43.5 mg/kg/day

COP(=O)(OC)C(O)C(Cl)(Cl)Cl (stereo unspecified) [Trichlorfon]
LEL [7, 20]: 15 mg/kg/day
LOAEL [7, 20]: 15 mg/kg/day
NEL [7, 20]: 5 mg/kg/day
NOAEL [7, 20]: 5 mg/kg/day
LEL [7, 21]: 15 mg/kg/day
LOAEL [7, 21]: 15 mg/kg/day
NEL [7, 21]: 5 mg/kg/day
NOAEL [7, 21]: 5 mg/kg/day
LEL [8, 22]: 129 mg/kg/day
LOAEL [8, 22]: 129 mg/kg/day
NEL [8, 22]: < 129 mg/kg/day
NOAEL [8, 22]: < 129 mg/kg/day
LEL [8, 23]: 129 mg/kg/day
LOAEL [8, 23]: 129 mg/kg/day
NEL [8, 23]: < 129 mg/kg/day
NOAEL [8, 23]: < 129 mg/kg/day
LEL [9, 24]: 35 mg/kg/day
LOAEL [9, 24]: 35 mg/kg/day
NEL [9, 24]: 10 mg/kg/day
NOAEL [9, 24]: 10 mg/kg/day
LEL [9, 25]: 110 mg/kg/day
LOAEL [9, 25]: 110 mg/kg/day
NEL [9, 25]: 35 mg/kg/day
NOAEL [9, 25]: 35 mg/kg/day
LEL ([9]; group: maternal, reproductive / reproductive performance / aborted / aborted + systemic / in life observation / clinical signs / altered breathing rate + …): 35 mg/kg/day
LOAEL ([9]; group: maternal, reproductive / reproductive performance / resorptions / resorptions): 110 mg/kg/day
NEL [9, 26]: 10 mg/kg/day
NOAEL [9, 26]: 35 mg/kg/day
LEL [10, 22]: 45 mg/kg/day
LOAEL [10, 22]: 45 mg/kg/day
NEL [10, 22]: < 45 mg/kg/day
NOAEL [10, 22]: < 45 mg/kg/day
LEL [10, 27]: 45 mg/kg/day
NEL [10, 27]: < 45 mg/kg/day
LOAEL [10, 28]: > 405 mg/kg/day
NOAEL [10, 28]: ≥ 405 mg/kg/day
LEL [11, 29]: 15 mg/kg/day
LOAEL [11, 29]: 15 mg/kg/day
NEL [11, 29]: < 15 mg/kg/day
NOAEL [11, 29]: < 15 mg/kg/day
LEL [11, 30]: 175 mg/kg/day
LOAEL [11, 30]: 175 mg/kg/day
NEL [11, 30]: 50 mg/kg/day
NOAEL [11, 30]: 50 mg/kg/day
LEL [11, 31]: 175 mg/kg/day
LOAEL [11, 31]: > 175 mg/kg/day
NEL [11, 31]: 50 mg/kg/day
NOAEL [11, 31]: ≥ 175 mg/kg/day
LOAEL [11, 32]: 175 mg/kg/day
NEL [11, 32]: 50 mg/kg/day
NOAEL [11, 32]: 50 mg/kg/day
LEL ([11]; group: reproductive, reproductive / offspring survival early / birth index / birth index + reproductive / offspring survival early / litter size / litter size): 175 mg/kg/day

Reference: EPA's ToxRefDB 2
